Reference: ChEMBL document CHEMBL3430912, “GSK Tres Cantos Anti-Kinetoplastid Screening (TCAKS) Data”

Legend:
Leishmania donovani [1] = test: (§1) GSK_TCAKS: pIC50 Leishmania donovani Imaging: Amastigotes/Macrophages. Assay plates (384-well) were prepared by adding 250nL of compound to each well. For single shot assay, the final compound concentration was 5 uM. […] Automated image analysis was performed with a script developed on Acapella High Content Imaging and Analysis Software (PerkinElmer). Output: Average number of amastigotes per macrophage cell were reported for each well.; assay type: functional, organism-based, Homo sapiens; settings: THP-1
[2] = biological target: Sterol 14-alpha demethylase (Trypanosoma cruzi (strain CL Brener), UniProt Q7Z1V1); test: GSK_TCAKS: pIC50 CYP51 from Trypanosoma cruzi.; assay type: functional
Sequence of Sterol 14-alpha demethylase (Q7Z1V1 whole entry): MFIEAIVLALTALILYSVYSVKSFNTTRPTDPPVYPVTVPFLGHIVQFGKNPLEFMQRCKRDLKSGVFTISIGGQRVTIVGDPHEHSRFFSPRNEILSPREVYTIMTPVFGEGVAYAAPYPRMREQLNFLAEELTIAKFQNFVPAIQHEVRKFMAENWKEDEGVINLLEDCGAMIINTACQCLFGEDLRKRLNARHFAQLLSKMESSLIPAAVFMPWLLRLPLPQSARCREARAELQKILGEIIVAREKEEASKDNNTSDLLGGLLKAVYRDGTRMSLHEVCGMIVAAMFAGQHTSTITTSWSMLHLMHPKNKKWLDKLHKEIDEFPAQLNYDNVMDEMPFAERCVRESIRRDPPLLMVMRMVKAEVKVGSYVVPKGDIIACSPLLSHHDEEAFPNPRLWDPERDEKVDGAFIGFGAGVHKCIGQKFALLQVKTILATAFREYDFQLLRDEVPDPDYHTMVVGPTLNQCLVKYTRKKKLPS

Leishmania donovani [3] = test: GSK_TCAKS: pIC50 Leishmania donovani viability assay using fluorescence intensity. Assay plates (1536-well) were prepared by adding 30nL per well of compound. For single shot assay, the final compound concentration was 5uM. […] Briefly, eGFP LdBOB axenic amastigotes were harvested, fixed and counted in a CASY cell counter (Roche-Applied Science). A final concentration of 1.5 * 10^5 cells per well were prepared in amastigote media containing 500 U/mL penicillin/streptomycin (Invitrogen) and 6uL was dispensed to each experimental well using a Multidrop Combi dispenser (Thermo Scientific). 6uL of assay media was dispensed to control columns used as reference for 100% compound response. Following incubation for 72 h at 37C, 5% CO2, 2 uL of resazurin was added to each well at a final concentration of 0.5 mM in phosphate buffered saline (PBS) with IGEPAL (Sigma-Aldrich), 0.05% (v/v).; assay type: functional, organism-based
[4] = GSK_TCAKS: pIC50 HepG2 human cell line viability assay using luminiscence. […] Seeding density was checked to ensure that new mono-layers were not more than 50% confluent at the time of harvesting. Cell suspension was added to 500 mL of the same medium at a final density of 1.2 * 10^5 cells/mL. This cell suspension was dispensed (25 uL, 3000 cells per well) into 384-well clear-bottom plates using a Multidrop Combi dispenser. Prior to addition of the cell suspension, the screening compounds (250 nL) were pre-dispensed into the plates with an Echo liquid handler. Plates were incubated for 48 h at 37C, 5% CO2. After incubation, plates equilibrated at room temperature for 30 min before proceeding to develop the luminescent signal. The signal developer, CellTiter-Glo Reagent, was allowed to equilibrate at room temperature for 30 min and added to the plates (25uL per well) using a Multidrop Combi dispenser. Plates were left for 10 min at room temperature for stabilization and then read using a ViewLux.; assay type: toxicity, cell-based
Trypanosoma cruzi [5] = test: (§2) GSK_TCAKS: pIC50 H2C9 Imaging: H9c2 Host Cardiomyocytes. […] Cells were then washed once with PBS before infection. T. cruzi trypomastigotes, collected at days 5 to 8 after infection from LLC-MK2 parasite infected cultures, were allowed to swim out for 4h at 37C from a centrifuged pellet (2,500 rpm/10 min/room temperature). Trypomastigotes were then collected and counted in a CASY Cell Counter. Trypomastigotes, in supplemented DMEM, were added to H9c2 cultures in a multiplicity of infection of 1 and incubated for 18 h. Cells were washed once with PBS before incubation of the infected H9c2 monolayer with trypsin (Life-Technologies) to detach cells from the flask. Cells were counted in a CASY Cell Counter using a 150 um capillary and their density set at 5 * 10^4 cells per mL in supplemented assay DMEM. Infected H9c2 were dispensed into 384-well poly-lysine coated assay plates at 50uL per well using a Multidrop Combi dispenser. After seeding them, the plates were incubated at 37C, 5% CO2 for 72h. Cultures were then fixed and stained by addition of 50 uL of a solution containing 8% formaldehyde and 4 uM DRAQ5 DNA dye (BioStatus, UK) per well. […] Five images were collected per well for reliable statistical analysis. Automated image analysis was performed with a script developed on Acapella High Content Imaging and Analysis Software (PerkinElmer). Output: Number of H9c2 Host Cardiomyocytes nuclei to determine drug-related cytotoxicity.; assay type: functional, organism-based, Rattus norvegicus; settings: H9c2, 4 h
[6] = system: Trypanosoma brucei brucei; test: GSK_TCAKS: pIC50 Trypanosoma brucei viability assay using fluorescence intensity. Assay plates (1536-well) were prepared by dispensing 25nL of compound solution per well using an Echo acoustic dispenser (Labcyte).; assay type: functional, organism-based; settings: Lister 427, 2 h
[7] = system: Trypanosoma brucei brucei; test: GSK_TCAKS: pIC50 Trypanosoma brucei viability assay using luminiscence. Assay plates (1536-well) were prepared. T. brucei cultures were harvested and counted in a CASY cell counter. A parasite suspension was prepared at a final concentration of 5 * 10^4 cells/mL in complete HMI9 medium and 6uL was dispensed to all wells containing compounds using a Multidrop Combi dispenser. 6uL of HMI9 media with 0.4% DMSO were dispensed to control columns. Plates were incubated for 24 h at 37C, 5% CO2 then tempered for 10 min at room temperature. ATP content was quantified by adding 4 uL of CellTiter-Glo Reagent (Promega) according to the manufacturer's instructions. Luminescence was measured using a ViewLux.; assay type: functional, organism-based; settings: Lister 427, CASY
Trypanosoma cruzi [8] = test: GSK_TCAKS: pIC50 Trypanosoma cruzi viability assay using beta-GAL activity. This assay was run at single shot at 5uM compound concentration per well. The biological reagents consisted of NIH-3T3 host cells and trypomastigotes parasitic cells; both cell types were set to a 3.3 * 10^5 cells/mL dilution in assay DMEM by means of a CASY cell counter device using a 60um capillary. 6 uL of the mixture were dispensed per well (about 1 * 10^3 host-cells and 1 * 10^3 parasites) with a Multidrop Combi dispenser. […] In all wells, the percentage of DMSO never exceeded 0.5%. Plates incubated for four days at 37C, 5% CO2. The substrate used for the assay fluorescence intensity (FLINT) readout was resorufin-beta-D-galactopiranoside (Sigma-Aldrich) at 5uM per well. It was diluted in PBS supplemented with the soft detergent Igepal (Fluka).; assay type: functional, organism-based, Mus musculus; settings: Tulahuen, NIH3T3
Leishmania donovani [9] = test: as §1, with “THP-1 Host Macrophages.” for “Amastigotes/Macrophages.”, “THP-1” for “Average number of amastigotes per macrophage”, “cell count” for “cell”; assay type: functional, organism-based, Homo sapiens
Trypanosoma cruzi [10] = test: as §2, with “Trypanosoma cruzi” for “H2C9”, “Amastigotes/Cell.” for “H9c2 Host Cardiomyocytes.”, “number” for “Number”, “amastigotes per cell as infection level measurement.” for “H9c2 Host Cardiomyocytes nuclei to determine drug-related cytotoxicity.”; assay type: functional, organism-based, Rattus norvegicus; settings: H9c2, 4 h
Leishmania donovani [11] = test: as §1, with “Infected Macrophages.” for “Amastigotes/Macrophages.”, “Percent” for “Average number”, “infected” for “amastigotes per”, “cells” for “cell”; assay type: functional, organism-based, Homo sapiens; settings: THP-1
Trypanosoma cruzi [12] = test: as §2, with “Trypanosoma cruzi” for “H2C9”, “Infected Cells.” for “H9c2 Host Cardiomyocytes.”, “percentage” for “Number”, “infected cells per well as a second infection marker.” for “H9c2 Host Cardiomyocytes nuclei to determine drug-related cytotoxicity.”; assay type: functional, organism-based, Rattus norvegicus; settings: H9c2, 4 h

Row | Compound | IC50 (Leishmania donovani [1]) [µM] | IC50 [2] [µM] | IC50 (Leishmania donovani [3]) [µM] | IC50 at 48 h [4] [µM] | IC50 (Trypanosoma cruzi [5]) [µM] | IC50 [6] [µM] | IC50 [7] [µM] | IC50 (Trypanosoma cruzi [8]) [µM] | IC50 (Leishmania donovani [9]) [µM] | IC50 (Trypanosoma cruzi [10]) [µM] | IC50 (Leishmania donovani [11]) [µM] | IC50 (Trypanosoma cruzi [12]) [µM]
1 | Cc1ccnc(NS(=O)(=O)c2ccc(NC(=O)c3ccc([N+](=O)[O-])s3)cc2)n1 | 5.01 | 63.1 | 3.98 | 15.8 | 5.01 | 0.2 | 0.398 | 2 | 10 | 6.31 | 10 | 10
2 | CCOc1ccc(N(C)S(=O)(=O)c2ccc3[nH]cc(C(=O)NC4CCCC4)c(=O)c3c2)cc1 | 31.6 | 6.31 | > 50.1 | 50.1 | > 50.1 | 0.251 | 0.501 | 7.94 | 25.1 | 6.31 | 31.6 | > 50.1
3 | CCC(=O)N1N=C(c2ccc3c(c2)CCCC3)Sc2c1ncn2C(=O)CC | 2.51 | > 100 | 25.1 | > 100 | > 50.1 | 15.8 | 20 | 6.31 | > 50.1 | 12.6 | 3.16 | 20
4 | Cc1cc(NC(=O)C2CC2)ccc1OC1CCN(Cc2ccco2)CC1 | 12.6 | 63.1 | > 50.1 | 50.1 | 39.8 | 0.126 | 0.251 | 15.8 | 12.6 | 20 | 20 | 39.8
5 | c1ccc(Nc2nc(-c3ccccn3)cc(N3CCOCC3)n2)cc1 | 1.26 | > 100 | 6.31 | > 100 | 0.631 | 15.8 | 12.6 | 2 | > 50.1 | 25.1 | 2 | > 50.1
6 | CCNc1cc(-c2ccccn2)nc(Nc2ccccc2)n1 | 0.631 | > 100 | 2.51 | 25.1 | 0.251 | 25.1 | 12.6 | 0.794 | 20 | 3.16 | 0.794 | 3.16
7 | CCNc1cc(-c2ccccn2)nc(Nc2ccc(OC)cc2)n1 | 0.398 | 39.8 | 1.58 | 39.8 | 0.316 | 12.6 | 10 | 0.708 | 25.1 | 2.51 | 0.501 | 3.16
8 | OCC1CCCCN1c1cc(-c2ccccn2)nc(Nc2ccccc2)n1 (configuration not stated) | 1 | 79.4 | 3.16 | 31.6 | 0.501 | 5.01 | 6.31 | 0.794 | 20 | 2 | 1.26 | 3.98
9 | Cc1ccc(Nc2nc(-c3ccccn3)cc(N3CCCC(O)C3)n2)cc1 (configuration not stated) | 0.501 | 25.1 | 2 | 39.8 | 0.501 | 3.16 | 3.16 | 0.501 | 25.1 | 2.51 | 0.794 | 6.31
10 | COc1ccc(Nc2nc(-c3ccccn3)cc(N3CCCC(O)C3)n2)cc1 (configuration not stated) | 0.794 | 50.1 | 2.51 | 39.8 | 3.98 | 3.98 | 12.6 | 0.631 | 25.1 | 7.94 | 1 | 5.01
11 | Cc1nn(-c2nc(N)nc(-c3ccccn3)n2)c(N)c1-c1ccccc1 | 2 | > 100 | 5.01 | 63.1 | 12.6 | 2 | 6.31 | 3.98 | 20 | 1.26 | 3.16 | 5.01
